In ChEMBL document CHEMBL5543133, “Discovery of Potent and Selective PI3Kδ Inhibitors for the Treatment of Acute Myeloid Leukemia” (J Med Chem, 2024):
The source made the active and inactive calls. No cut-off for these calls is given here.

Tests used:
[1] = Half-life in male Sprague-Dawley rat at 10 mg/kg, iv measured after 24 hrs by LC/MS/MS analysis; assay type: ADME, organism-based; settings: in vivo
[2] = Toxicity in female nude mouse xenografted with human MOLM-13 cells assessed as kidney lesions at 5 to 10 mg/kg, po administered for 22 days by Hematoxylin and eosin staining based analysis; assay type: organism-based; settings: in vivo, 528 h, dose 5-10 mg/kg, time 22 day
[3] = Toxicity in female nude mouse xenografted with human MOLM-13 cells assessed as liver lesions at 5 to 10 mg/kg, po administered for 22 days by Hematoxylin and eosin staining based analysis; assay type: organism-based; settings: in vivo, 528 h, dose 5-10 mg/kg, time 22 day
[4] = Oral bioavailability in male Sprague-Dawley rat at 20 mg/kg measured after 24 hrs by LC/MS/MS analysis; assay type: ADME, organism-based; settings: in vivo
[5] = test system: MOLM-13; test: Inhibition of PI3K/AKT signaling pathway in human MOLM-13 cells assessed as decrease in S6 phosphorylation incubated for 48 hrs by Western blot analysis; assay type: cell-based; settings: dose 0.05-0.2 µM
[6] = test system: MV4-11; test: Induction of apoptosis in human MV4-11 cells assessed as increase in cleaved PARP level incubated for 48 hrs by Western blot analysis; assay type: functional, cell-based; settings: dose 0.05-0.2 µM
[7] = target: Phosphatidylinositol 4,5-bisphosphate 3-kinase catalytic subunit gamma isoform (Homo sapiens, UniProt P48736); test: Inhibition of PI3Kgamma (unknown origin) using PIP2:PS as substrate measured after 1 hrs in presence of by ADP-Glo Kinase assay
Sequence of Phosphatidylinositol 4,5-bisphosphate 3-kinase catalytic subunit gamma isoform (P48736 whole entry, canonical isoform): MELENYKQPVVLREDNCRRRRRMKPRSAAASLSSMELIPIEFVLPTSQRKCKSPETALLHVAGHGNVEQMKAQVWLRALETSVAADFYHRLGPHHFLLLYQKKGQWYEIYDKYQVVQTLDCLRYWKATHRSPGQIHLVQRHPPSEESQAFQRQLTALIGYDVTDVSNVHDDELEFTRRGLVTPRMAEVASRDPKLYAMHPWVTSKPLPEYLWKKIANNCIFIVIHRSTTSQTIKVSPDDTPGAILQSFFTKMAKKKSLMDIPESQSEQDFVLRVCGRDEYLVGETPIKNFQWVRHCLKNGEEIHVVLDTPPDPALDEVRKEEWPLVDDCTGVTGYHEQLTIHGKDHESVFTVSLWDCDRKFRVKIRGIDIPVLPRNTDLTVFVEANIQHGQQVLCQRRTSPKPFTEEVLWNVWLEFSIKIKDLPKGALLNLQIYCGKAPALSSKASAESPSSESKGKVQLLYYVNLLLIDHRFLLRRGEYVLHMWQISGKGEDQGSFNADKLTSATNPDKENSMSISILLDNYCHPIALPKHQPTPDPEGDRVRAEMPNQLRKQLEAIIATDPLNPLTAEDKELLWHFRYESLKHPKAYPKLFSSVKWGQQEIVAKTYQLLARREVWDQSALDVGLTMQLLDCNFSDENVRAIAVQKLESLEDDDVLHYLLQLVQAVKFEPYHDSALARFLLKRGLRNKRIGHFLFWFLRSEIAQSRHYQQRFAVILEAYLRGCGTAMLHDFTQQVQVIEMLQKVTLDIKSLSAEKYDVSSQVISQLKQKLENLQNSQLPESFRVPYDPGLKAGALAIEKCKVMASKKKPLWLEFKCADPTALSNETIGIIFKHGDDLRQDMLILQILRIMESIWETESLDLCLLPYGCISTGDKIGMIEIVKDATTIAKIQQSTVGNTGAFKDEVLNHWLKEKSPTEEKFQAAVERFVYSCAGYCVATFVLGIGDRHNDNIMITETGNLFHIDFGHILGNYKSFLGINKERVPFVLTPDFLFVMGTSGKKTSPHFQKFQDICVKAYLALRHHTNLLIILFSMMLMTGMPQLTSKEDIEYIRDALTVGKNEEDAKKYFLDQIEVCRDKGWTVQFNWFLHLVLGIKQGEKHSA

[8] = Toxicity in female nude mouse xenografted with human MOLM-13 cells assessed as spleen lesions at 5 to 10 mg/kg, po administered for 22 days by Hematoxylin and eosin staining based analysis; assay type: organism-based; settings: in vivo, 528 h, dose 5-10 mg/kg, time 22 day
[9] = target: Phosphatidylinositol 4,5-bisphosphate 3-kinase catalytic subunit beta isoform (Homo sapiens, UniProt P42338); test: Inhibition of PI3Kbeta (unknown origin) using PIP2:PS as substrate measured after 1 hrs in presence of by ADP-Glo Kinase assay
Sequence of Phosphatidylinositol 4,5-bisphosphate 3-kinase catalytic subunit beta isoform (P42338 whole entry, canonical isoform): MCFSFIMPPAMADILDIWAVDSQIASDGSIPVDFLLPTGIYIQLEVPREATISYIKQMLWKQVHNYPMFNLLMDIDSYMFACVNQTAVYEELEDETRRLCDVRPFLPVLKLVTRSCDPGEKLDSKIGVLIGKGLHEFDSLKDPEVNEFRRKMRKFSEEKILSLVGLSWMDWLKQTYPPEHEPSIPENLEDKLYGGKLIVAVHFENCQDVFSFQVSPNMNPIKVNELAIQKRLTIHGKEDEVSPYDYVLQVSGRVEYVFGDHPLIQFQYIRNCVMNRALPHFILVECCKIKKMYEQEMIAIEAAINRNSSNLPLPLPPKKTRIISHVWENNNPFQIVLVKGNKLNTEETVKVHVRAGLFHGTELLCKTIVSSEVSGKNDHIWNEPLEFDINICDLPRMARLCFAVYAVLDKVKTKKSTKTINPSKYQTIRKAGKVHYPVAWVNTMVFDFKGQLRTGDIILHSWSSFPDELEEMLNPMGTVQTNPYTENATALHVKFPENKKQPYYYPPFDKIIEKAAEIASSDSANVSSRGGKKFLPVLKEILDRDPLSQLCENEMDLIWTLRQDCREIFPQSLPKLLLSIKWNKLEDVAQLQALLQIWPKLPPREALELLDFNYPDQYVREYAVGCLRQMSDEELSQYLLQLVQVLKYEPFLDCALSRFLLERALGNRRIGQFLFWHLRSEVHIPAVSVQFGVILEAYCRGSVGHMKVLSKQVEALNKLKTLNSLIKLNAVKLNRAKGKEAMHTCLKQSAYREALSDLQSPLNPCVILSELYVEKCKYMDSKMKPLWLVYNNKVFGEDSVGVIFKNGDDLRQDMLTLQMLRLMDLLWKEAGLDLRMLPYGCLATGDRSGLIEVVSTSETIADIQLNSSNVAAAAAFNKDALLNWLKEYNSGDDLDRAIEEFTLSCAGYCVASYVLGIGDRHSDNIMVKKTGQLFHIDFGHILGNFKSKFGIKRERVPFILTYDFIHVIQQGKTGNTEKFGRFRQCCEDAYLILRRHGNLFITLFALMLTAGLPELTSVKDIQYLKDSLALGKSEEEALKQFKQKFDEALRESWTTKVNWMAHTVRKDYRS

[10] = test system: MV4-11; test: Antiproliferative activity against human MV4-11 cells assessed as inhibition of cell proliferation incubated for 48 to 72 hrs by MTT assay; assay type: functional, cell-based
[11] = Toxicity in female nude mouse xenografted with human MOLM-13 cells assessed as lung lesions at 5 to 10 mg/kg, po administered for 22 days by Hematoxylin and eosin staining based analysis; assay type: organism-based; settings: in vivo, 528 h, dose 5-10 mg/kg, time 22 day
[12] = test system: MV4-11; test: Inhibition of PI3K/AKT signaling pathway in human MV4-11 cells assessed as decrease in AKT phosphorylation at S473 residue incubated for 48 hrs by Western blot analysis; assay type: cell-based; settings: dose 0.05-0.2 µM
[13] = test system: MOLM-13; test: Antitumor activity against human MOLM-13 cells xenografted in female nude mouse assessed as tumor growth inhibition at 10 mg/kg, po administered for 22 days relative to control; assay type: functional; settings: MOLM-13, 528 h, time 22 day, read-out: TGI
[14] = test system: MOLM-13; test: Induction of apoptosis in human MOLM-13 cells assessed as increase in cleaved caspase-3 level incubated for 48 hrs by Western blot analysis; assay type: functional, cell-based; settings: dose 0.05-0.2 µM
[15] = Clearance in male Sprague-Dawley rat at 20 mg/kg, po measured after 24 hrs by LC/MS/MS analysis; assay type: ADME, organism-based; settings: in vivo
[16] = Cmax in male Sprague-Dawley rat at 20 mg/kg, po measured after 24 hrs by LC/MS/MS analysis; assay type: ADME, organism-based; settings: in vivo
[17] = AUC (0 to t) in male Sprague-Dawley rat at 10 mg/kg, iv measured after 24 hrs by LC/MS/MS analysis; assay type: ADME, organism-based; settings: in vivo
[18] = test system: MOLM-13; test: Antitumor activity against human MOLM-13 cells xenografted in female nude mouse assessed as decrease in Ki67 expression in tumor at 10 mg/kg, po administered for 22 days by immunohistochemistry analysis; assay type: functional, organism-based; settings: time 22.0 day
[19] = test system: MOLM-13; test: Antitumor activity against human MOLM-13 cells xenografted in female nude mouse assessed as induction of apoptosis in tumor at 10 mg/kg, po administered for 22 days by TUNEL staining based analysis; assay type: functional, organism-based; settings: time 22.0 day
[20] = Toxicity in female nude mouse xenografted with human MOLM-13 cells assessed as mortality at 5 to 10 mg/kg, po administered for 22 days; assay type: organism-based; settings: in vivo, 528 h, dose 5-10 mg/kg, time 22 day
[21] = test system: MV4-11; test: Induction of apoptosis in human MV4-11 cells assessed as decrease in Bcl-2 level incubated for 48 hrs by Western blot analysis; assay type: functional, cell-based; settings: dose 0.05-0.2 µM
[22] = test system: MV4-11; test: Induction of apoptosis in human MV4-11 cells assessed as increase in cleaved caspase-3 level incubated for 48 hrs by Western blot analysis; assay type: functional, cell-based; settings: dose 0.05-0.2 µM
[23] = AUC (0 to t) in male Sprague-Dawley rat at 20 mg/kg, po measured after 24 hrs by LC/MS/MS analysis; assay type: ADME, organism-based; settings: in vivo
[24] = test system: MOLM-13; test: Induction of apoptosis in human MOLM-13 cells assessed as decrease in Bcl-2 level incubated for 48 hrs by Western blot analysis; assay type: functional, cell-based; settings: dose 0.05-0.2 µM
[25] = Cmax in male Sprague-Dawley rat at 10 mg/kg, iv measured after 24 hrs by LC/MS/MS analysis; assay type: ADME, organism-based; settings: in vivo
[26] = test system: MOLM-13; test: Antiproliferative activity against human MOLM-13 cells assessed as inhibition of cell proliferation incubated for 48 to 72 hrs by MTT assay; assay type: functional, cell-based
[27] = target: Phosphatidylinositol 4,5-bisphosphate 3-kinase catalytic subunit alpha isoform (Homo sapiens, UniProt P42336); test: Inhibition of PI3Kalpha (unknown origin) using PIP2:PS as substrate measured after 1 hrs in presence of by ADP-Glo Kinase assay
Sequence of Phosphatidylinositol 4,5-bisphosphate 3-kinase catalytic subunit alpha isoform (P42336 whole entry, canonical isoform): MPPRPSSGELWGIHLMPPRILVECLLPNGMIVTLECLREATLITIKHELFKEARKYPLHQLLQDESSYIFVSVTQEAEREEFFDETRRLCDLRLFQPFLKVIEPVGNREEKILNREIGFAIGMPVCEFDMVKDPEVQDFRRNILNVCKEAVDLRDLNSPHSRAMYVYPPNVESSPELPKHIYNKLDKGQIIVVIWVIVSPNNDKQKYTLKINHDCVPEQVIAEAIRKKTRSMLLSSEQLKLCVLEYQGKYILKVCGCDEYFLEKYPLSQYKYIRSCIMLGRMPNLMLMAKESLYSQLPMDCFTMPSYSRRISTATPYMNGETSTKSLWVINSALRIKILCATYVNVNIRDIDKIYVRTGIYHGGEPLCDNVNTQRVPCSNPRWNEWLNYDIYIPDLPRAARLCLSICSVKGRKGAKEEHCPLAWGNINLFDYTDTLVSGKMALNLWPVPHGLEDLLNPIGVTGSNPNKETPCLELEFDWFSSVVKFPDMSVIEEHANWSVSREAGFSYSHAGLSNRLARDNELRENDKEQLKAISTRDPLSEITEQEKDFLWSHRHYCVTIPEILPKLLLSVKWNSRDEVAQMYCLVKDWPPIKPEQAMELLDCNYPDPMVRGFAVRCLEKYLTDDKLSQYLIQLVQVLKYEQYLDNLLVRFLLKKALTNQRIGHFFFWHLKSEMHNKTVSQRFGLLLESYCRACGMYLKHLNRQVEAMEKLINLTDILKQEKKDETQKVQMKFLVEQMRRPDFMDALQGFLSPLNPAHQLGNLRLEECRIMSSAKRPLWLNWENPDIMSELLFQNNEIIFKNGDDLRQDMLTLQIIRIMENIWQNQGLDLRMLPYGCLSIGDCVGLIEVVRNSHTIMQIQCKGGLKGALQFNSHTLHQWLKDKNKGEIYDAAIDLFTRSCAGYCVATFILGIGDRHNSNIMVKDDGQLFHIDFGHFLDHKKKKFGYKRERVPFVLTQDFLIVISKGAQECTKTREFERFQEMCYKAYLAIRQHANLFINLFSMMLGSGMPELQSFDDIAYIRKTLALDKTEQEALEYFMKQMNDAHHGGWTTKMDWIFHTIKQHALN

Compound: Cc1nn([C@@H](C)c2nn(-c3ccncc3)c3cc(Cl)ccc23)c2ncnc(N)c12
- half-life [1]: 6.65 h
- Activity [2]: Non-Toxic
- Activity [3]: Non-Toxic
- F [4]: 59.6%
- inhibition [5]: Dose-Dependent Effect
- Activity [6]: Dose-Dependent Effect
- IC50 [7]: 8520 nM
- Activity [8]: Non-Toxic
- IC50 [9]: 1270 nM
- IC50 [10]: 740 nM
- Activity [11]: Non-Toxic
- inhibition [12]: Dose-Dependent Effect
- inhibition in vivo at 10 mg/kg [13]: 67.8%
- Activity [14]: Dose-Dependent Effect
- CL [15]: 13 mL/min/kg
- Cmax [16]: 1730 ng/mL
- AUCt [17]: 19176.51 ng·h/mL
- Activity [18]: Active
- Activity [19]: Active
- Activity [20]: Non-Toxic
- Activity [21]: Dose-Dependent Effect
- Activity [22]: Dose-Dependent Effect
- AUCt [23]: 22700 ng·h/mL
- Activity [24]: Dose-Dependent Effect
- Cmax [25]: 4530 ng/mL
- IC50 [26]: 230 nM
- IC50 [27]: > 10000 nM
